These are literature values, as cited in patent US20120130144A1, “TREATMENT OF LUNG CANCER WITH A NITROBENZAMIDE COMPOUND IN COMBINATION WITH A GROWTH FACTOR INHIBITOR” (BiPar Sciences, Inc., priority 2009, published 2012).

In the data set the test system is VEGF. Particulars: human, in vivo; cited from earlier work.
Sequence of VEGF (P15692 207-311 limits assumed): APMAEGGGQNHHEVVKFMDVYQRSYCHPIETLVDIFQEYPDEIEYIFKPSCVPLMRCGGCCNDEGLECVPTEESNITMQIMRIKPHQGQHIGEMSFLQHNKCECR

As for “bevacizumab: first anti-VEGF drug, a monoclonal antibody”, the “patients who benefit from therapy” value was 10-15%.
